Laboratory results published in patent US7425635B2, “Prodrugs and conjugates of thiol- and selenol-containing compounds and methods of use thereof” (University of Utah Research Foundation, priority 1997, dated 2008).

Key:
[1] = tested on: Gst-mu; test: Northern blot of liver Gst-mu mRNA after ip dosing; type: in vivo, mice; details: mean ± SEM
Protocol: (§1) Linking efficacy to biochemical parameters and a mechanism was limited in the initial study by only two parameters, [Se] and GPx activity. The in-vivo effects of selenazolidine compounds were then evaluated using, in addition to GPx, glutathione S-transferases (GSTs), quinone oxidoreductases (NQORs), UDP-glucuronosyltransferases (UGTs), and microsomal epoxide hydrolase (mEH). To investigate transcriptional changes of these classes of enzymes, it was necessary to develop a battery of cDNA probes for use in Northern blot analysis of RNA extracted from treated animals (Table 2).
(§2) Whether the selenaproline compounds had the ability to up-regulate the transcription of Phase II and/or other “protective” enzymes was first evaluated following a single dose of each (Table 3). […] The experiment was repeated but with a 7-day treatment regimen (Table 4), the time period for which the compounds were given in the diet before NNK administration in the tumor experiment reported in Table 1. […] With multiple doses, SCA induced Ugt1a9, an mRNA that was not changed with a single dose. […] The elevation in the Gst-mu transcript was unique to multiple OSCA treatment. The elevation of the GST-alpha mRNA was also seen with SCA treatment. Microsomal epoxide hydrolase mRNA was robustly elevated by multiple doses of all three selenaproline compounds, an effect not anticipated from the single dose experiment where not even minor changes were apparent.

[2] = tested on: Ugt1a9; test: Northern blot of liver Ugt1a9 mRNA after ip dosing; type: in vivo, mice; details: 1.25 mg Se/kg, mean ± SEM
Protocol: as §1, §2

[3] = tested on: Gst-alpha; test: Northern blot of liver Gst-alpha mRNA after ip dosing; type: in vivo, mice; details: mean ± SEM
Protocol: as §1, §2

[4] = Stability in aqueous solution; type: physicochemical; details: compared with MSCA; previous studies
Excerpt: Accordingly, additional compounds were synthesized with a range of partition coefficients (Table 6) and evaluated their ability to alter gene transcription following single (Table 7) and multiple (Table 8) doses. The new 2-(R,S)-substituted-4(R)-carboxylic acid derivatives involving 2-butyl, 2-cyclohexyl, 2-phenyl and 2-(2-hydroxyphenyl) were synthesized utilizing the reaction of selenocysteine and the appropriate carboxaldehyde. They were purified by crystallization from ethanol/acetonitrile mixtures and their molecular structures were verified by spectral methods of analysis (′HNMR, ^13CNMR, ESIMs and HRMS).

[5] = tested on: mEH; test: Northern blot of liver mEH mRNA after ip dosing; type: in vivo, mice; details: mean ± SEM
Protocol: as §1, §2

[6] = tested on: GPx; test: Northern blot of liver GPx mRNA after ip dosing; type: in vivo, mice; details: mean ± SEM
Protocol: as §1, §2

[7] = tested on: Ugt1a1; test: Northern blot of liver Ugt1a1 mRNA after ip dosing; type: in vivo, mice; details: mean ± SEM
Protocol: as §1, §2

[8] = sALT (hepatotoxicity) after 7 daily ip doses; type: in vivo; design: unit not given here; details: 7 daily doses ip, 1.25 mg Se/kg, with corn oil; untreated mice 37.5 ± 2.9
Excerpt: Many of the mRNA changes seen with a single dose were not sustained with multiple dosing. Changes in Ugt transcripts after multiple dosing were noticeably absent. Unique to BSCA among the four new compounds investigated was its ability to induce Gst-alpha, Gst-mu and GPx mRNAs. For the Gst-alpha transcripts, which appeared elevated by corn oil, the BSCA increase was much greater than the vehicle alone (8-fold versus 2-fold) and was statistically significant (p<0.05). BSCA shared with PhOHSCA the ability to elevate mEH mRNA.

[9] = tested on: Ugt1a6; test: Northern blot of liver Ugt1a6 mRNA after ip dosing; type: in vivo, mice; details: mean ± SEM
Protocol: as §1, §2

[10] = tested on: GST; test: Hepatic cytosolic GST (CDNB) activity after 7 daily ip doses; type: in vivo, mice; details: 7 daily doses ip, hepatic cytosol; naive 5248 ± 503
[11] = Body weight gain and liver weight in four-month feeding study; type: in vivo; details: mice, diet 15 ppm Se, NNK
Protocol: (§3) Where indicated, mice (16 g) were given diets fortified with SCA, MSCA or OSCA (15 ppm Se) for 1 week prior to NNK (10 umol, ip). Two other groups received the unmodified AIN-76A diet, with and without NNK administration. All groups were maintained on their pretreatment diet until the animals were sacrificed after 16 weeks. Liver GPx activity is expressed as μmol NADPH oxidized [in regenerating GSH]/min/mg 10,000 g×20 min supernatant protein; RBC activity as μmol/min/mg RBC lysate hemoglobin.

[12] = tested on: GPx; test: Hepatic and RBC (tButylOOH) GPx activity in four-month feeding study; type: in vivo; details: mice, diet 15 ppm Se, NNK
Protocol: (§4) Three novel selenazolidines, 2-methyl-, 2-oxo- and 2-unsubstituted (i.e., selenaproline) selenazolidine-4[R]-carboxylic acid (MSCA, OSCA, and SCA respectively) that had been synthesized as prodrugs of selenocysteine were evaluated for their potential to act as cancer chemopreventive agents. [Se] and GPx activity were evaluated.
as §3

[13] = tested on: NNK lung tumor; test: NNK lung tumor four-month feeding study; type: in vivo; details: mice, diet 15 ppm Se from 1 week prior to NNK (10 umol, ip), sacrificed after 16 weeks
Protocol: as §4, §3

[14] = tested on: GPx; test: Hepatic cytosolic GPx (H202) activity after 7 daily ip doses; type: in vivo, mice; details: 7 daily doses ip, hepatic cytosol; naive 894 ± 36
[15] = 1 dose ip, 1.25 mg Se/kg in corn oil, liver RNA 24 hours after dosing
[16] = 7 daily doses ip, 1.25 mg Se/kg, with corn oil, liver RNA 24 hours after the last dose
[17] = 1 dose ip, 1.25 mg Se/kg, liver RNA 24 hours after dosing
[18] = 7 daily doses ip, 1.25 mg Se/kg, liver RNA 24 hours after the last dose

SMILES: CCCCC1NC(C(=O)O)C[Se]1 (centres unmarked) [BSCA, 2-n-butyl-SCA]
- Gst-mu mRNA [1, 15]: 1.58 ± 0.46 fold change from naive
- Ugt1a9 mRNA ([2]; 7 daily doses ip, with corn oil, liver RNA 24 hours after the last dose): 1.69 ± 0.35 fold change from naive
- Gst-alpha mRNA [3, 15]: 1.39 ± 0.05 fold change from naive
- Stability in aqueous solution [4]: much more stable in aqueous solution than MSCA
- mEH mRNA [5, 15]: 0.69 ± 0.19 fold change from naive
- GPx mRNA [6, 15]: 1.58 ± 0.46 fold change from naive
- Ugt1a1 mRNA [7, 15]: 0.83 ± 0.28 fold change from naive
- Ugt1a1 mRNA [7, 16]: 1.21 ± 0.26 fold change from naive
- sALT [8]: 37.1 ± 2.7
- Ugt1a6 mRNA [9, 15]: 1.95 ± 0.21 fold change from naive
- Ugt1a6 mRNA [9, 16]: 1.84 ± 0.54 fold change from naive

SMILES: CC1N[C@H](C(=O)O)C[Se]1 (mixture of isomers) [MSCA, 2(R,S)-Methylselenazolidine-4(R)-carboxylic acid]
- GST (CDNB) activity [10]: 6948 ± 502 nmol/mg cytosol (100,000 g supernatant) protein/min
- Gst-mu mRNA [1, 17]: 1.07 ± 0.57 fold change from naive
- Gst-mu mRNA [1, 18]: 1.65 ± 0.18 fold change from naive
- Ugt1a9 mRNA ([2]; 1 dose ip, liver RNA 24 hours after dosing): 1.47 ± 0.18 fold change from naive
- Ugt1a9 mRNA ([2]; 7 daily doses ip, liver RNA 24 hours after the last dose): 1.22 ± 0.29 fold change from naive
- Gst-alpha mRNA [3, 17]: 1.00 ± 0.19 fold change from naive
- Gst-alpha mRNA [3, 18]: 1.18 ± 0.33 fold change from naive
- Body wt gain (%) [11]: 49.3%
- Liver weight [11]: 1.17 ± 0.02 g
- RBC (tButylOOH) GPx ([12]; RBC): 220 ± 32 μmol/min/mg RBC lysate hemoglobin
- Hepatic (tButylOOH) GPx ([12]; liver): 564 ± 46 μmol NADPH oxidized/min/mg 10,
- mEH mRNA [5, 17]: 1.06 ± 0.12 fold change from naive
- mEH mRNA [5, 18]: 3.35 ± 1.21 fold change from naive
- GPx (1.5 kb) mRNA [6, 17]: 1.65 ± 0.27 fold change from naive
- GPx mRNA [6, 18]: 1.43 ± 0.35 fold change from naive
- Ugt1a1 mRNA [7, 17]: 1.07 ± 0.11 fold change from naive
- Ugt1a1 mRNA [7, 18]: 1.15 ± 0.09 fold change from naive
- Ugt1a6 mRNA [9, 17]: 1.21 ± 0.28 fold change from naive
- Ugt1a6 mRNA [9, 18]: 1.02 ± 0.15 fold change from naive
- NNK Tumors [13]: 8.3 ± 0.9
- GPx (H202) activity [14]: 944 ± 32 nmol/mg cytosol (100,000 g supernatant) protein/min
